Measurements published in patent US7273885B2, “Inhibitors of serine proteases, particularly HCV NS3-NS4A protease” (Vertex Pharmaceuticals Incorporated, priority 2002, dated 2007).
Like-named read-outs stand apart in the source and are kept apart here. *1 amine or outer side, *2 acyl side, *3 side chain or, on linkers, in order; H or OH if unused. Where a SMILES comes first, the peptide text is derived from it. [ ]: non-standard residue; d: D form. The star is where a group is joined. Oic = O=C(O)[C@@H]1C[C@@H]2CCCC[C@@H]2N1; X2 = CCC[C@H](N[*:1])C(=O)C(=O)[*:2]; Chg = N[C@H](C(=O)O)C1CCCCC1; Tle = CC(C)(C)[C@H](N)C(=O)O; Hiv = CC(C)[C@H](O)C(=O)O; NHcPr = C1CC1N*

Key:
[1] = target: HCV NS3-NS4A protease (tNS3 with KK4A) (Hepatitis C virus genotype 1a, UniProt P27958); assay: HCV Ki assay (HPLC microbore separation of 5AB substrate and products); assay type: biochemical
Sequence of HCV NS3-NS4A protease (tNS3 with KK4A) (P27958 1027-1208): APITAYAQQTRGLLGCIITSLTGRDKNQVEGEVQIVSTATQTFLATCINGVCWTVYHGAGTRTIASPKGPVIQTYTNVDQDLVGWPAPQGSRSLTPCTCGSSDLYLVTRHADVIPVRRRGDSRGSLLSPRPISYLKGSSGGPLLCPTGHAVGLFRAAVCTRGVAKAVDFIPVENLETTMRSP
Procedure: HPLC Microbore Method for Separation of 5AB Substrate and Products
• Substrate: • NH2-Glu-Asp-Val-Val-(alpha)Abu-Cys-Ser-Met-Ser-Tyr-COOH
A stock solution of 20 mM 5AB (or concentration of your choice) was made in DMSO w/ 0.2M DTT. This was stored in aliquots at −20 C.
Buffer: 50 mM HEPES, pH 7.8; 20% glycerol; 100 mM NaCl
Total assay volume was 100 μL
The buffer, KK4A, DTT, and tNS3 were combined; distributed 78 μL each into wells of 96 well plate. This was incubated at 30 C for ˜5–10 min.
2.5 μL of appropriate concentration of test compound was dissolved in DMSO (DMSO only for control) and added to each well. This was incubated at room temperature for 15 min.
Initiated reaction by addition of 20 μL of 250 μM 5AB substrate (25 μM concentration is equivalent or slightly lower than the Km for 5AB).
Incubated for 20 min at 30 C.
Terminated reaction by addition of 25 μL of 10% TFA
Transferred 120 μL aliquots to HPLC vials
Separated SMSY product from substrate and KK4A by the following method:
Microbore Separation Method:
Instrumentation: Agilent 1100
• Degasser G1322A • Binary pump G1312A • Autosampler G1313A • Column thermostated chamber G1316A • Diode array detector G1315A Column:
Phenomenex Jupiter; 5 micron C18; 300 angstroms; 150×2 mm; P/O 00F-4053-B0 • Column thermostat: 40 C • Injection volume: 100 μL • Solvent A=HPLC grade water+0.1% TFA • Solvent B=HPLC grade acetonitrile+0.1% TFA
• Stop time: 17 min • Post-run time: 10 min.

[2] = system: Cells containing hepatitis C virus (HCV) replicon; assay: HCV replicon cell assay (Taqman RT-PCR of HCV RNA); assay type: cell-based
Procedure: HCV Replicon Cell Assay Protocol
Cells containing hepatitis C virus (HCV) replicon were maintained in DMEM containing 10% fetal bovine serum (FBS), 0.25 mg per ml of G418, with appropriate supplements (media A).
On day 1, replicon cell monolayer was treated with a trypsin:EDTA mixture, removed, and then media A was diluted into a final concentration of 100,000 cells per ml wit. 10,000 cells in 100 ul were plated into each well of a 96-well tissue culture plate, and cultured overnight in a tissue culture incubator at 37° C.
On day 2, compounds (in 100% DMSO) were serially diluted into DMEM containing 2% FBS, 0.5% DMSO, with appropriate supplements (media B). The final concentration of DMSO was maintained at 0.5% throughout the dilution series.
Media on the replicon cell monolayer was removed, and then media B containing various concentrations of compounds was added. Media B without any compound was added to other wells as no compound controls.
Cells were incubated with compound or 0.5% DMSO in media B for 48 hours in a tissue culture incubator at 37° C. At the end of the 48-hour incubation, the media was removed, and the replicon cell monolayer was washed once with PBS and stored at −80° C. prior to RNA extraction.
Culture plates with treated replicon cell monolayers were thawed, and a fixed amount of another RNA virus, such as Bovine Viral Diarrhea Virus (BVDV) was added to cells in each well. RNA extraction reagents (such as reagents from RNeasy kits) were added to the cells immediately to avoid degradation of RNA. Total RNA was extracted according the instruction of manufacturer with modification to improve extraction efficiency and consistency. Finally, total cellular RNA, including HCV replicon RNA, was eluted and stored at −80° C. until further processing.
A Taqman real-time RT-PCR quantification assay was set up with two sets of specific primers and probe. One was for HCV and the other was for BVDV. Total RNA extractants from treated HCV replicon cells was added to the PCR reactions for quantification of both HCV and BVDV RNA in the same PCR well. Experimental failure was flagged and rejected based on the level of BVDV RNA in each well. The level of HCV RNA in each well was calculated according to a standard curve run in the same PCR plate. The percentage of inhibition or decrease of HCV RNA level due to compound treatment was calculated using the DMSO or no compound control as 0% of inhibition. The IC50 (concentration at which 50% inhibition of HCV RNA level is observed) was calculated from the titration curve of any given compound.

[3] = 50% inhibition of HCV RNA level, 48-hour incubation, HCV replicon cells, read-out: IC50

Row | Structure (SMILES) | Ki [1] | IC50 [2, 3] | IC50 ([2]; 48 h)
1 | CCC[C@H](NC(=O)[C@@H]1C[C@@H]2CCCC[C@@H]2N1C(=O)[C@@H](NC(=O)[C@@H](NC(=O)[C@](C)(O)c1ccccc1)C1CCCCC1)C(C)(C)C)C(=O)C(=O)NC1CC1 [Compound 20a] | < 500 nM | 500 to 1000 nM | 
2 | CCC[C@H](NC(=O)[C@@H]1C[C@@H]2CCCC[C@@H]2N1C(=O)[C@@H](NC(=O)[C@@H](NC(=O)C(=O)Nc1ccccc1)C1CCCCC1)C(C)(C)C)C(=O)C(=O)NC1CC1 [Compound 21a] | < 500 nM |  | < 500 nM
3 | CCC[C@H](NC(=O)[C@@H]1C[C@@H]2CCCC[C@@H]2N1C(=O)[C@@H](NC(=O)[C@@H](NC(=O)C1(O)CCCC1)C1CCCCC1)C(C)(C)C)C(=O)C(=O)NC1CC1 [Compound 22a] | 500 to 1000 nM | 1000 to 5000 nM | 
4 | CCC[C@H](NC(=O)[C@@H]1C[C@@H]2CCCC[C@@H]2N1C(=O)[C@@H](NC(=O)[C@@H](NC(=O)[C@@H](O)C(C)C)C1CCCCC1)C(C)(C)C)C(=O)C(=O)NC1CC1 [Compound 23a] (H-[Hiv][Chg][Tle][Oic][X2]-NHcPr) | < 500 nM | 1000 to 5000 nM | 
5 | CCC[C@H](NC(=O)[C@@H]1C[C@@H]2CCCC[C@@H]2N1C(=O)[C@@H](NC(=O)[C@@H](NC(=O)C(=O)C(C)C)C1CCCCC1)C(C)(C)C)C(=O)C(=O)NC1CC1 [Compound 24a] | < 500 nM | 1000 to 5000 nM | 
6 | CCC[C@H](NC(=O)[C@@H]1C[C@@H]2CCCC[C@@H]2N1C(=O)[C@@H](NC(=O)[C@@H](NC(=O)c1[nH]c(C)c(C)c1C(C)=O)C1CCCCC1)C(C)(C)C)C(=O)C(=O)NC1CC1 [Compound 25a] | < 500 nM | < 500 nM | 
7 | CCC[C@H](NC(=O)[C@@H]1C[C@@H]2CCCC[C@@H]2N1C(=O)[C@@H](NC(=O)[C@@H](NC(=O)c1ccoc1)C1CCCCC1)C(C)(C)C)C(=O)C(=O)NC1CC1 [Compound 26a] | < 500 nM | 1000 to 5000 nM | 
8 | CCC[C@H](NC(=O)[C@@H]1C[C@@H]2CCCC[C@@H]2N1C(=O)[C@@H](NC(=O)[C@@H](NC(=O)c1ccco1)C1CCCCC1)C(C)(C)C)C(=O)C(=O)NC1CC1 [Compound 27a] | < 500 nM | 1000 to 5000 nM | 
9 | CCC[C@H](NC(=O)[C@@H]1C[C@@H]2CCCC[C@@H]2N1C(=O)[C@@H](NC(=O)[C@@H](NC(=O)c1[nH]c(C)c(C(C)=O)c1C)C1CCCCC1)C(C)(C)C)C(=O)C(=O)NC1CC1 [Compound 29a] | < 500 nM | 500 to 1000 nM | 
10 | CCC[C@H](NC(=O)[C@@H]1C[C@@H]2CCCC[C@@H]2N1C(=O)[C@@H](NC(=O)[C@@H](NC(=O)c1ccccn1)C1CCCCC1)C(C)(C)C)C(=O)C(=O)NC1CC1 [Compound 30a] | 500 to 1000 nM | 1000 to 5000 nM | 
11 | CCC[C@H](NC(=O)[C@@H]1C[C@@H]2CCCC[C@@H]2N1C(=O)[C@@H](NC(=O)[C@@H](NC(=O)c1cccnc1)C1CCCCC1)C(C)(C)C)C(=O)C(=O)NC1CC1 [Compound 31a] | < 500 nM | 1000 to 5000 nM | 
12 | CCC[C@H](NC(=O)[C@@H]1C[C@@H]2CCCC[C@@H]2N1C(=O)[C@@H](NC(=O)[C@@H](NC(=O)c1ccncc1)C1CCCCC1)C(C)(C)C)C(=O)C(=O)NC1CC1 [Compound 32a] | < 500 nM | 1000 to 5000 nM | 
13 | CCCC(NC(=O)[C@@H]1C[C@@H]2CCCC[C@@H]2N1C(=O)[C@@H](NC(=O)[C@@H](NC(=O)c1[nH]c(C)c(C)c1C(C)=O)C1CCCCC1)C(C)(C)C)C(=O)C(=O)NC1CC1 (some centres unmarked) [Compound 33a] | < 500 nM | < 500 nM | 
14 | CCC[C@H](NC(=O)[C@@H]1C[C@@H]2CCCC[C@@H]2N1C(=O)[C@@H](NC(=O)[C@@H](NC(=O)c1[nH]c(C)c(C(=O)c2ccccc2)c1C#N)C1CCCCC1)C(C)(C)C)C(=O)C(=O)NC1CC1 [Compound 34a] | < 500 nM | 1000 to 5000 nM | 
15 | CCC[C@H](NC(=O)[C@@H]1C[C@@H]2CCCC[C@@H]2N1C(=O)[C@@H](NC(=O)[C@@H](NC(=O)c1cnc2ccccc2n1)C1CCCCC1)C(C)(C)C)C(=O)C(=O)NC1CC1 [Compound 35a] | < 500 nM | 1000 to 5000 nM | 
16 | CCC[C@H](NC(=O)[C@@H]1C[C@@H]2CCCC[C@@H]2N1C(=O)[C@@H](NC(=O)[C@@H](NC(=O)c1ccc2cccnc2n1)C1CCCCC1)C(C)(C)C)C(=O)C(=O)NC1CC1 [Compound 36a] | < 500 nM | 1000 to 5000 nM | 
17 | CCC[C@H](NC(=O)[C@@H]1C[C@@H]2CCCC[C@@H]2N1C(=O)[C@@H](NC(=O)[C@@H](NC(=O)c1cc(C)c(C(C)=O)[nH]1)C1CCCCC1)C(C)(C)C)C(=O)C(=O)NC1CC1 [Compound 37a] | < 500 nM | < 500 nM | 
18 | CCC[C@H](NC(=O)[C@@H]1C[C@@H]2CCCC[C@@H]2N1C(=O)[C@@H](NC(=O)[C@@H](NC(=O)c1[nH]c2ccccc2c1C(C)=O)C1CCCCC1)C(C)(C)C)C(=O)C(=O)NC1CC1 [Compound 39a, 3-Acetyl-1H-indole-2-carboxylic acid (cyclohexyl-{1-[2-(1-cyclopropylaminooxalyl-butylcarbamoyl)-octahydro-indole-1-carbonyl]-2,2-dimethyl-propylcarbamoyl}-methyl)-amide] | < 500 nM | < 500 nM | 
19 | CCC[C@H](NC(=O)[C@@H]1C[C@@H]2CCCC[C@@H]2N1C(=O)[C@@H](NC(=O)[C@@H](NC(=O)c1cc2cc(C(C)=O)ccc2[nH]1)C1CCCCC1)C(C)(C)C)C(=O)C(=O)NC1CC1 [Compound 40a, 5-Acetyl-1H-indole-2-carboxylic acid (cyclohexyl-{1-[2-(1-cyclopropylaminooxalyl-butylcarbamoyl)-octahydro-indole-1-carbonyl]-2,2-dimethyl-propylcarbamoyl}-methyl)-amide] | < 500 nM | < 500 nM | 
20 | CCC[C@@H](NC(=O)[C@@H]1C[C@@H]2CCCC[C@@H]2N1C(=O)[C@@H](NC(=O)[C@@H](NC(=O)c1[nH]c(C)c(C)c1C(C)=O)C1CCCCC1)C(C)(C)C)C(=O)C(=O)NC1CC1 [Compound 41a] | 1000 to 5000 nM | < 500 nM | 
21 | CCC[C@H](NC(=O)[C@@H]1C[C@@H]2CCCC[C@@H]2N1C(=O)[C@@H](NC(=O)[C@@H](NC(=O)c1cc(CC)c(C(C)=O)[nH]1)C1CCCCC1)C(C)(C)C)C(=O)C(=O)NC1CC1 [Compound 42a] | < 500 nM | < 500 nM | 
22 | CCC[C@H](NC(=O)[C@@H]1C[C@@H]2CCCC[C@@H]2N1C(=O)[C@@H](NC(=O)[C@@H](NC(=O)c1cc(Cl)c(Cl)[nH]1)C1CCCCC1)C(C)(C)C)C(=O)C(=O)NC1CC1 [Compound 43a] | < 500 nM | < 500 nM | 
23 | CCC[C@H](NC(=O)[C@@H]1C[C@@H]2CCCC[C@@H]2N1C(=O)[C@@H](NC(=O)[C@@H](NC(=O)c1cc(C(=O)CC)c[nH]1)C1CCCCC1)C(C)(C)C)C(=O)C(=O)NC1CC1 [Compound 44a] | < 500 nM | < 500 nM | 
24 | CC(=O)c1c(C(=O)N[C@H](C(=O)N[C@H](C(=O)N2[C@H](C(=O)NC(CCC(F)(F)F)C(=O)C(=O)NC3CC3)C[C@@H]3CCCC[C@@H]32)C(C)(C)C)C2CCCCC2)[nH]c(C)c1C (some centres unmarked) [Compound 45a] | < 500 nM | < 500 nM | 
25 | CCC[C@H](NC(=O)[C@@H]1C[C@@H]2CCCC[C@@H]2N1C(=O)[C@@H](NC(=O)[C@@H](NC(=O)[C@@H]1Cc2ccccc2N1)C1CCCCC1)C(C)(C)C)C(=O)C(=O)NC1CC1 [Compound 46a] | < 500 nM | 1000 to 5000 nM | 
